Laboratory results: US20260209206A1, “STAT6 DEGRADERS AND USES THEREOF” (Kymera Therapeutics, Inc., priority 2023, published 2026)

How the values were obtained:
[1] = target: T1, STAT6 (Homo sapiens, UniProt P42226); assay: STAT6 MSD degradation in A549 cells; assay type: cell-based; details: 24 h
T1 construct: endogenous in cells; host or cells: A549 (STAT6-HiBiT), endogenous locus tagged
T1 sequence (P42226 1-847): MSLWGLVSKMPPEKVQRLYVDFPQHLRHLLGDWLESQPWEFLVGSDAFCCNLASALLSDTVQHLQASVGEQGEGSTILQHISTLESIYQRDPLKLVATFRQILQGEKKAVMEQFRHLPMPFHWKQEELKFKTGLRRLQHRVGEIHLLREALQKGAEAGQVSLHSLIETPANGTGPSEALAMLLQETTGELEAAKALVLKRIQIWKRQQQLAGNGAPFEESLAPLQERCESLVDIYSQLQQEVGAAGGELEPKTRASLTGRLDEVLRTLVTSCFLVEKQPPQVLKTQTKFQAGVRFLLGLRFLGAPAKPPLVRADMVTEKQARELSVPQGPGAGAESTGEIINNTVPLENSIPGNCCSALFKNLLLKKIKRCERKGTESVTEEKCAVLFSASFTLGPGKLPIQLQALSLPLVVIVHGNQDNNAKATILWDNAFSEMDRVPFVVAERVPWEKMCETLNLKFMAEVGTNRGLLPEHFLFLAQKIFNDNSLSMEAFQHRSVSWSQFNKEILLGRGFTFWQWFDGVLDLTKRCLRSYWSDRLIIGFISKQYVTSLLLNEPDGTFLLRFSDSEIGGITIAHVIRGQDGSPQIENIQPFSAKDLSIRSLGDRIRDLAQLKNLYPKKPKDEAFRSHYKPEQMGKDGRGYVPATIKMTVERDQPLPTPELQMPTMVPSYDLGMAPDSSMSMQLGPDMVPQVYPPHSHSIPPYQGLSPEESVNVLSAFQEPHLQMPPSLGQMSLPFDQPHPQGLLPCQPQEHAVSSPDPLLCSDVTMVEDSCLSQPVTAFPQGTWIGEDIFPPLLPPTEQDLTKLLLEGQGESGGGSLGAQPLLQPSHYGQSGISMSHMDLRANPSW
Procedure: Degradation of STAT6 in cells was quantitatively measured using Meso Scale Discovery (MSD) technology. A549 cells were seeded in 96-well plates with a density of 1.5×10e4 to 5×10e5 cells per well in 100 μl fresh media. Compounds were then added to the assay plates with a final top concentration of up to 10 uM in a 1:3 dilution series with total of 9 doses. The assay plates were then incubated for 4 to 24 hours at 37° C. under 5% CO2. The assay plates were then centrifuged for 5 minutes and the cell pellets were treated with 100 μl/well RIPA lysis buffer (Boston Bioproducts, BP-115D) with protease and phosphatase inhibitors (Roche, 05892791001 and 04906837001). To prepare the MSD assay plates (MSD, L15XA), the plates were coated with the capture antibody (Abnova, H00006778) in PBS, at 40 μl/well. The plates were then incubated overnight at 4° C., washed 1 time with […] TBST buffer (Cell Signaling Technology, #9997S) and blocked with 150 μl/well blocking buffer (MSD, R93BA-4). Cell lysates were then added to MSD assay plates and the plates were incubated at room temperature for 1 hour. The plates were then washed 3 times with 150 μl/well TBST buffer and 25 μl/well primary detection antibody (Cell Signaling Technology, #5397S). The assay plates were then incubated at room temperature for 1 hour, washed 3 times with 150 μl/well TBST buffer, and 25 μl/well secondary detection antibody, SULFO-TAG anti-rabbit antibody (MSD, R32AB-1) were added. The assay plates were then incubated at room temperature for 1 hour, washed 3 times with 150 μl/well TBST buffer, and 150 μl/well MSD reading buffer (MSD, R92TC-2) were added. The plates were then analyzed by an MSD reader. The data was analyzed by GraphPad Prism and the dose dependent STAT6 degradation was fit using the four-parameter inhibitor vs. response nonlinear regression.
The letter codes for DC50 (nM) include: A (<1 nM); B (1-10 nM); C (>10-100 nM); D (>100-1000 nM); E (>1000 nM); and F (not tested). The letter codes for Dmax (%) include: A (>90%); B (>70-90%); C (>50-70%); D (<50%); and E (not tested).

[2] = target: T2, biotinylated truncated STAT6 (123-632)-avi (Homo sapiens, UniProt P42226); assay: STAT6 HTRF binding assay; details: 0.15 nM STAT6 (123-632)-avi, 20 nM fluorescein-labeled probe, 30 minutes at room temperature
T2 construct: 0.15 nM biotinylated truncated STAT6 (123-632)-avi purified from E. coli; made in house; host or cells: E. coli
T2 sequence (P42226 123-632 limits assumed): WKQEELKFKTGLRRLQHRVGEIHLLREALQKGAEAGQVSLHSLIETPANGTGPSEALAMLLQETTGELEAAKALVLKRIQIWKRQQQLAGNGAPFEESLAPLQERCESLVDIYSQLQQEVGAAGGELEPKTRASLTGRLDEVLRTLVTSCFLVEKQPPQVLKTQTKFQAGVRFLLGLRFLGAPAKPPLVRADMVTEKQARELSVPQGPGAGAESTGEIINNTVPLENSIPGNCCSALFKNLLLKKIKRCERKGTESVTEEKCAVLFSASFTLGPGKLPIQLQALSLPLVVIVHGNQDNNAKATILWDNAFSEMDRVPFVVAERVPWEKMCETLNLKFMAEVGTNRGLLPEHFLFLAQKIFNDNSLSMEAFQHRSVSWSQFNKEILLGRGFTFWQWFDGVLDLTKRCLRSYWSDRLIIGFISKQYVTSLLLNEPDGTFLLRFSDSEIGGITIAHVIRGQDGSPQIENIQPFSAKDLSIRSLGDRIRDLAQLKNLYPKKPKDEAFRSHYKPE
Procedure: HTRF binding assays were perforned using 0.15 nM biotinylated truncated STAT6 (123-632)-avi purified from E. coli, 1× Streptavidin-terbium (CisBio) prepared by mixing SA-Tb in PPI detection buffer (CisBio), 20 nM proprietary fluorescein-labeled probe, and test compounds in assay buffer consisting of 50 mM HEPES-Na pH 7.5, 100 mM NaCl, 1 mM EDTA, 2 mM DTT, 0.1% Tween-20 with a final volume of 20 uL. Compound stocks were dissolved at 10 mM in 100% DMSO and 11 point titration with 3 fold serial dilution was performed in white, opaque 384 well microplates. Reaction plates were incubated at room temperature for 30 minutes. Plates were centrifuged at low rpm for 5 mins, and the ratio of fluorescence intensities were measured at emission wavelengths for fluorescein acceptor (520 nm) and terbium donor (495 nm) on Envision Plate reader. % Inhibition was calculated from the 520/495 ratio generated by using proprietary positive control compound for 100% inhibition and DMSO only reactions for 0% inhibition. Data was processed and dose response curves were generated using GraphPad Prism to determine the concentration required for inhibiting 50% of the HTRF signal (IC50).
The letter codes for IC50 (μM) include: A (<0.1 μM); B (0.1-1 μM); C (>1-10 μM); D (>10-100 μM); E (>100 μM); and F (not tested).

[3] = target: T1, STAT6; assay: STAT6 HiBiT degradation in A549 (STAT6-HiBiT) cells; assay type: cell-based; details: 24 h
Procedure: Degradation of STAT6 in endogenously tagged STAT6-HiBiT A549 cells was quantitatively measured using the Nano-Glo HiBiT Lytic Detection System (Promega, 3040). A549 (STAT6-HiBiT) cells were seeded in 384-well plates with a density of 1.25k cells per well in 20 μl fresh media. Compounds were then added to the assay plates using the Apricot S3 with a final top concentration of up to 10 uM in a 4-fold dilution series with total of 10 doses. The assay plates were then incubated for 24 hours at 37° C. under 5% CO2. At the assay endpoint, 20 μL of Nano-Glo HiBiT Lytic Reagent was added to each well and agitated on a plate shaker at 300 rpm for 10 minutes at room temperature. Luminescence was read on PHERAStar FSX Instrument (Is integration time). The data was analyzed by GraphPad Prism and the dose dependent STAT6 degradation was fit using the four-parameter inhibitor vs. response nonlinear regression.
The letter codes for DC50 (nM) include: A (<1 nM): B (1-10 nM); C (>10-100 nM); D (>100-1000 nM); E (>1000 nM); and F (not tested). The letter codes for Dmax (%) include: A (>90%); B (>70-90%); C (>50-70%); D (<50%): and E (not tested).

| SMILES | DC50 [1] | Dmax [1] | IC50 [2] | DC50 [3] | Dmax [3] |
| --- | --- | --- | --- | --- | --- |
| CN(C)C(=O)c1cc2ccc(C3=CCCN(C(=O)C4Cc5c(cccc5OCCOCCOCCOCCOCCc5ccc6c(c5)n(C)c(=O)n6C5CCC(=O)NC5=O)CN4C=O)C3)cc2[nH]1 (stereo not drawn) [I-105] | > 1000 nM | < 50% |  |  |  |
| COc1cc(N2CCN(CCc3cccc4c3n(C)c(=O)n4C3CCC(=O)NC3=O)CC2)ccc1-c1cc(C2=CCCN(C(=O)CCn3ccnn3)C2)cc2ccc(C(=O)N(C)C)cc12 (stereo not drawn) [I-1293] |  |  | < 0.1 µM | < 1 nM | > 90% |
| COc1cc(N2CCN(CCc3cccc4c3n(C)c(=O)n4C3CCC(=O)NC3=O)CC2)ccc1-c1cc(C2=CCCN(C(=O)CCn3ccnn3)C2)cc2ccncc12 (stereo not drawn) [I-1401] |  |  | 10 to 100 µM |  |  |
| COc1cc(N2CCN(CCc3cccc4c3n(C)c(=O)n4C3CCC(=O)NC3=O)CC2)ccc1-c1cc(C(=O)N(C)C)ccc1C1=CCCN(C(=O)CCn2ccnn2)C1 (stereo not drawn) [I-1323] |  |  | 0.1 to 1 µM | 100 to 1000 nM | 70 to 90% |
| COc1cc(N2CCN(CCc3cccc4c3n(C)c(=O)n4C3CCC(=O)NC3=O)CC2)ccc1-c1cc(C2=CCCN(C(=O)CCn3ccnn3)C2)c(F)c2ccncc12 (stereo not drawn) [I-1271] |  |  | 1 to 10 µM | > 1000 nM | < 50% |
| COc1cc(N2CCN(CCc3cccc4c3n(C)c(=O)n4C3CCC(=O)NC3=O)CC2)ccc1-c1cc(C2CCCCN(C(=O)CCn3ccnn3)C2)c(F)c2[nH]c(C(=O)N(C)C)cc12 (stereo not drawn) [I-1292] |  |  |  | < 1 nM | > 90% |
| CN(C)C(=O)c1cc2ccc(C3=CCCN(C(=O)C4Cc5c(cccc5OCCOCCOCCOCCOCCc5cccc6c5n(C)c(=O)n6C5CCC(=O)NC5=O)CN4C=O)C3)cc2[nH]1 (stereo not drawn) [I-61] | > 1000 nM | < 50% |  |  |  |
| CN(C)C(=O)c1cc2ccc(C3=CCCN(C(=O)C4Cc5c(cccc5OCCOCCOCCOCCc5cccc6c5n(C)c(=O)n6C5CCC(=O)NC5=O)CN4C=O)C3)cc2[nH]1 (stereo not drawn) [I-98] | > 1000 nM | < 50% | 10 to 100 µM |  |  |
| COc1cc(N2CCN(CCc3cccc4c3n(C)c(=O)n4C3CCC(=O)NC3=O)CC2)ccc1-c1cc(C2=CCCN(C(=O)CCn3ccnn3)C2)cc2cc(C(=O)N(C)C)cnc12 (stereo not drawn) [I-1338] |  |  | 10 to 100 µM | > 1000 nM | < 50% |
| COc1cc(N2CCN(CCc3cccc4c3n(C)c(=O)n4C3CCC(=O)NC3=O)CC2)ccc1-c1cc(C2=CCCN(C(=O)CCn3ccnn3)C2)ccc1-n1ccccc1=O (stereo not drawn) [I-1309] |  |  |  | > 1000 nM | < 50% |
| COc1cc(N2CCN(CCc3cccc4c3n(C)c(=O)n4C3CCC(=O)NC3=O)CC2)ccc1-c1cc(C2=CCCN(C(=O)CCn3ccnn3)C2)ccc1C(=O)N(C)C (stereo not drawn) [I-1282] |  |  | 10 to 100 µM | > 1000 nM | < 50% |
| COc1cc(N2CCN(CCc3cccc4c3n(C)c(=O)n4C3CCC(=O)NC3=O)CC2)ccc1-c1cc(C2=CCCN(C(=O)CCn3ccnn3)C2)cnc1CNC(=O)N(C)C (stereo not drawn) [I-1336] |  |  | 1 to 10 µM | > 1000 nM | < 50% |
| COc1cc(N2CCN(CCc3cccc4c3n(C)c(=O)n4C3CCC(=O)NC3=O)CC2)ccc1-c1cc(C2=CCCN(C(=O)CCn3ccnn3)C2)c(F)c2cnccc12 (stereo not drawn) [I-1270] |  |  | 1 to 10 µM | > 1000 nM | < 50% |
| COc1cc(N2CCN(CCc3cccc4c3n(C)c(=O)n4C3CCC(=O)NC3=O)CC2)ccc1-c1cc(C2=CCCN(C(=O)CCn3ccnn3)C2)cc2c1CN(C(=O)N(C)C)C2 (stereo not drawn) [I-1334] |  |  | 1 to 10 µM | 10 to 100 nM | 70 to 90% |
| COc1cc(N2CCN(CCc3cccc4c3n(C)c(=O)n4C3CCC(=O)NC3=O)CC2)ccc1-c1cc(Nc2ccccn2)c(F)c(C2=CCCN(C(=O)CCn3ccnn3)C2)c1 (stereo not drawn) [I-1272] |  |  | 0.1 to 1 µM | < 1 nM | > 90% |
| COc1cc(N2CCN(CCc3cccc4c3n(C)c(=O)n4C3CCC(=O)NC3=O)CC2)ccc1-c1cc(-c2cccc(C(=O)N(C)C)c2)c(F)c2[nH]c(C(=O)N(C)C)cc12 (stereo not drawn) [I-1302] |  |  | 1 to 10 µM | 1 to 10 nM | 70 to 90% |
| COc1cc(N2CCN(CCc3cccc4c3n(C)c(=O)n4C3CCC(=O)NC3=O)CC2)ccc1-c1cc(NC(=O)CCn2ccnn2)ccc1-c1ncc(C(=O)N(C)C)[nH]1 (stereo not drawn) [I-1324] |  |  | 10 to 100 µM | > 1000 nM | < 50% |
